Key:
[1] = test system: cells; assay: Toxicity of DMSO to cells; format: cell-based
Method: (§1) The CP and CP-A peptides were noted to be hydrophobic and insoluble in aqueous solutions. A variety of solvents and carriers were tested to improve their solubility. Solvents and/or carriers that improve solubility of CP and CP-A included, but were not limited to, ethanol, dimethylsulphoxide (DMSO), dimethyl formamide (DMF), and trifluoracetic acid (TFA). When using DMSO as a solvent, the final concentration used in the platelet function experiments ranged from 0.063%-0.250%. DMSO concentrations greater than 1% were observed toxic to cells. Stock solutions of CP and CP-A were prepared in DMSO and used at a […] dilution.

[2] = test system: platelets; assay: Collagen-induced platelet activation, whole blood flow cytometry (P-Selectin, PAC-1); format: cell-based, human; settings: for concentration-dependent effect on collagen-induced platelet activation: 50, 100 or 200 μM
Method: Peripheral blood was drawn from healthy, nonsmoking adult volunteers (IRB-approved written informed consent) who had not received any platelet inhibitory drugs in the preceding 2 weeks. After discarding the first 2 mL, blood was drawn into a 3.2% sodium citrate Vacutainer® (Becton Dickinson, Franklin Lakes. N.J., USA).
Flow cytometric analysis may be used to evaluate platelet function, and/or the assessment of platelet activation. Michelson, A. D., “Evaluation of platelet function by flow cytometry” Pathophysiol. Haemost. Thromb. 35:67-82 (2006). In the absence of an added exogenous platelet agonist, whole blood flow cytometry can determine the activation state of circulating platelets, as judged by the binding of an activation-dependent monoclonal antibody. In addition to this assessment of platelet function in vivo, inclusion of an exogenous agonist in the assay enables analysis of the reactivity of circulating platelets in vitro. In the latter application, whole blood flow cytometry is a physiological assay of platelet function in that an agonist results in a specific functional response by the platelets: a change in the surface expression of a physiological receptor (or other antigen or bound ligand), as determined by a change in the binding of a monoclonal antibody.
Markers of platelet activation include activation-dependent changes in the glycoprotein IIb/IIIa complex and exposure of granule membrane proteins. The platelet glycoprotein IIb/IIIa complex is believed involved with biochemical events leading to activation, and may express an activation dependent epitope recognized by monoclonal antibody PAC-1. Shattil et al., “Changes in the platelet membrane glycoprotein IIb/IIIa complex during platelet activation” J. Biol. Chem. 260:11107-11114 (1985). P-Selectin (GMP-140, PADGEM, CD-62P) is now known to be a component of the alpha-granule membrane and is therefore exposed on the surface of the platelet upon activation, due to the fusing of the vesicle with the outer membrane. These two markers of platelet activation were used to study the effect of peptide on collagen-induced platelet activation using whole blood flow cytometry.
The final concentration of a peptide used in incubation (i.e., for example, the GPVI CP) was 100 μM. The following antibodies (and appropriately matched isotype control antibodies) were used for flow cytometry analysis: fluorescein isothiocyanate (FITC)-conjugated PAC-1 monoclonal antibody which recognizes the activated conformation of glycoprotein (GP) IIb/IIIa; phycoerythrin (PE)-conjugated anti-CD62P monoclonal antibody directed against P-Selectin; and PECy7-conjugated anti-CD41 monoclonal antibody which recognizes the α-subunit of the CD41/CD61 complex (GPIIb-IIIa) (BD-Pharmingen, San-Diego, Calif., USA; and/or DAKO, Carpinteria, Calif., USA).
Prior to flow cytometric experiments, PE-conjugated anti-CD62P and anti-CD41 antibodies were mixed at a ratio of 1:2.5 (volume/volume) and diluted at a ratio of 1:9 (volume/volume) with 10 mmol/L HEPES, 0.15 mol/L NaCl, pH 7.4, containing 1% bovine serum albumin (BSA) and 15 mmol/L sodium azide. Collagen was purchased from Chronolog Corp (Havertown, Pa., USA). The stock 1 mg/mL collagen solution was diluted at a ratio of 1:10 (volume/volume) with 10 mmol/L HEPES, 0.15 mol/L NaCl, pH 7.4. Stock solutions of GPVI core peptide in DMSO (or pure DMSO as a “vehicle” control) were diluted at a ratio of 1:10 (volume/volume) with 10 mmol/L HEPES, 0.15 mol/L NaCl, pH 7.4, immediately before the addition of blood samples.
Flow cytometric analysis: aliquots of citrated whole blood were incubated at 37° C. for 60 min with vehicle (DMSO; in a final concentrations of 0.063, 0.125 or 0.250%) or a preliminarily diluted GPVI core peptide in a final concentration of 100 μM. Then, the aliquoted samples were stimulated with 20 μg/mL collagen for 5 minutes at 37° C. in the presence of monoclonal antibody FITC-PAC-1. […]

[3] = Solubility of peptides in aqueous solutions and solvents; format: physicochemical; settings: solubility improved by ethanol, DMSO, DMF, TFA
Method: as §1

Molecule	DMSO concentration observed toxic to cells [1]	expression of the platelet activation markers as compared to vehicle control ([2]; 100 μM peptide, 20 μg/mL collagen)	collagen-mediated platelet activation, percentage of P-Selectin-positive platelets ([2]; 100 μM, FIG. 8A)	collagen-mediated platelet activation, P-Selectin mean fluorescence surface expression intensity ([2]; 100 μM, FIG. 8B)	collagen-mediated platelet activation, PAC-1 mean fluorescence surface expression intensity ([2]; 100 μM, FIG. 8C)	solubility in aqueous solutions [3]	reduction in the expression of the platelet activation markers compared to vehicle control ([2]; 100 μM peptide, whole blood preincubated 60 min 37° C., 20 μg/mL collagen, % P-Selectin-positive platelets, P-Selectin and PAC-1 MFI)	concentration-dependent effect on collagen-induced platelet activation ([2]; % P-Selectin-positive platelets, P-Selectin and PAC-1 MFI, listed as GPVI core peptide)	concentration-dependent effect on collagen-induced platelet activation ([2]; % P-Selectin-positive platelets, P-Selectin and PAC-1 MFI, listed as GPVI-CP)	inhibition of platelet activation ([2]; Examples 4 and 5)
C[S+](C)[O-] [DMSO, dimethylsulphoxide]	greater than 1%	–	–	–	–	–	–	–	–	–
H-GNLVAICLGAV-OH [CP-A, NH2-Gly-Asn-Leu-Val-Ala-Ile-Cys-Leu-Gly-Ala-Val-OH, reference compound]	–	did not lead to any significant differences	absence of effect	absence of effect	absence of effect	insoluble	–	–	–	–
H-GNLVRICLGAV-OH [Peptide 2, NH2-Gly-Asn-Leu-Val-Arg-Ile-Cys-Leu-Gly-Ala-Val-OH]	–	–	–	–	–	insoluble	32%-59%	inhibited platelet activation in a concentration-dependent manner	concentration-dependent effect	30-60%
